# Measured values from PubChem BioAssay AID1845207 (Molecular Pharmacology Branch, DTP, NCI, 2023).
# Tested on: NCI-H1876 tumor spheroid viability
# Experiment: Anticancer human tumor NCI-H1876 cell line growth inhibition;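 note: spheroids exposed to compounds for seven days before the viability read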;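 for viability, T/C: percent of DMSO vehicle control viability so 100% = vehicle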
# Settings: spheroids with HUVEC and MSC; for IC50: curve of first compound; for viability, T/C: stronger effect = lower value
# Outline: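 Complex spheroids of malignant cells with endothelial cells and mesenchymal stem cells; agents alone or combined, from near clinical Cmax (or 10 microM if unknown) down in half-log steps, 0.25% DMSO final.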
# [1] = second compound 0.003 µM, first compound 0.0316 µM
# [2] = second compound 0.003 µM, first compound 0.1 µM
# [3] = second compound 0.003 µM, first compound 0.316 µM
# [4] = second compound 0.003 µM, first compound 1 µM
# [5] = second compound 0.003 µM, first compound 3.16 µM
# [6] = second compound 0.003 µM, first compound 10 µM
# [7] = second compound 0.00949 µM, first compound 0.0316 µM
# [8] = second compound 0.00949 µM, first compound 0.1 µM
# [9] = second compound 0.00949 µM, first compound 0.316 µM
# [10] = second compound 0.00949 µM, first compound 1 µM
# [11] = second compound 0.00949 µM, first compound 3.16 µM
# [12] = second compound 0.00949 µM, first compound 10 µM
# [13] = second compound 0.03 µM, first compound 0.0316 µM
# [14] = second compound 0.03 µM, first compound 0.1 µM
# [15] = second compound 0.03 µM, first compound 0.316 µM
# [16] = second compound 0.03 µM, first compound 1 µM
# [17] = second compound 0.03 µM, first compound 3.16 µM
# [18] = second compound 0.03 µM, first compound 10 µM
# [19] = second compound 0.0949 µM, first compound 0.0316 µM
# [20] = second compound 0.0949 µM, first compound 0.1 µM
# [21] = second compound 0.0949 µM, first compound 0.316 µM
# [22] = second compound 0.0949 µM, first compound 1 µM
# [23] = second compound 0.0949 µM, first compound 3.16 µM
# [24] = second compound 0.0949 µM, first compound 10 µM
# [25] = second compound 0.3 µM, first compound 0.0316 µM
# [26] = second compound 0.3 µM, first compound 0.1 µM
# [27] = second compound 0.3 µM, first compound 0.316 µM
# [28] = second compound 0.3 µM, first compound 1 µM
# [29] = second compound 0.3 µM, first compound 3.16 µM
# [30] = second compound 0.3 µM, first compound 10 µM
SMILES,IC50 (second compound 0.003 µM) [nM],IC50 (second compound 0.00949 µM) [nM],IC50 (second compound 0.03 µM) [nM],IC50 (second compound 0.0949 µM) [nM],IC50 (second compound 0.3 µM) [nM],"viability, T/C [1] [%]","viability, T/C [2] [%]","viability, T/C [3] [%]","viability, T/C [4] [%]","viability, T/C [5] [%]","viability, T/C [6] [%]","viability, T/C [7] [%]","viability, T/C [8] [%]","viability, T/C [9] [%]","viability, T/C [10] [%]","viability, T/C [11] [%]","viability, T/C [12] [%]","viability, T/C [13] [%]","viability, T/C [14] [%]","viability, T/C [15] [%]",further results
Cc1cc(C)c(CNC(=O)c2cc(-c3ccc(CN4CCOCC4)cc3)cc3c2cnn3C2CCCC2)c(=O)[nH]1 + CC[C@@]1(O)C(=O)OCc2c1cc1n(c2=O)Cc2cc3c(CN(C)C)c(O)ccc3nc2-1,509,< 31.6,< 31.6,< 31.6,< 31.6,78.6,70,56.6,39,27.7,10.5,40.9,39.6,35.1,26.2,22,10.5,15.6,15.2,17.6,"viability, T/C [16]: 17.8%; viability, T/C [17]: 16.5%; viability, T/C [18]: 9.6%; viability, T/C [19]: 8.57%; viability, T/C [20]: 9.17%; viability, T/C [21]: 10.2%; viability, T/C [22]: 12.2%; viability, T/C [23]: 12%; viability, T/C [24]: 11.9%; viability, T/C [25]: 3.79%; viability, T/C [26]: 4.57%; viability, T/C [27]: 4.59%; viability, T/C [28]: 6.24%; viability, T/C [29]: 7.93%; viability, T/C [30]: 7.45%"
[2H]c1nc(C)nc([2H])c1-c1cc(NC[C@@H](C)c2cccc3c(C(=O)NC)ccnc23)ncn1 + CC[C@@]1(O)C(=O)OCc2c1cc1n(c2=O)Cc2cc3c(CN(C)C)c(O)ccc3nc2-1,> 10000,< 31.6,< 31.6,< 31.6,< 31.6,93.3,89.6,93.9,87.1,85.1,78.5,25.2,22.2,24,21.4,19.7,17.1,3.65,4.05,3.87,"viability, T/C [16]: 4.16%; viability, T/C [17]: 4.24%; viability, T/C [18]: 4.06%; viability, T/C [19]: 2.96%; viability, T/C [20]: 2.98%; viability, T/C [21]: 2.95%; viability, T/C [22]: 3.01%; viability, T/C [23]: 2.71%; viability, T/C [24]: 3.38%; viability, T/C [25]: 2.42%; viability, T/C [26]: 2.48%; viability, T/C [27]: 2.48%; viability, T/C [28]: 2.74%; viability, T/C [29]: 2.32%; viability, T/C [30]: 2.21%"
